Measurements taken from US20160206631A1, “OXYSTEROLS THAT ACTIVATE LIVER X RECEPTOR SIGNALING AND INHIBIT HEDGEHOG SIGNALING” (THE REGENTS OF THE UNIVERSITY OF CALIFORNIA, priority 2010, published 2016).

Legend:
[1] = system: Hedgehog signaling pathway; test: Ptch1 mRNA expression (Hh target gene) by Q-RT-PCR in Saos-2 cells; assay type: cell-based, human; conditions: Saos-2, 2% FBS, 72 hours; 2 or 4 τM TO, 4 μM cyclopamine (FIG. 5)
Procedure: Saos-2 cells were cultured in medium containing 2% FBS and were treated at confluence with 4 μM Cyc, 2 or 4 τM TO, alone or in combination for 72 hours. Expression of Ptch1 and Gli1 (data not shown) mRNA was measured by Q-RT-PCR and normalized to GAPDH.

[2] = system: CAPAN-1 human pancreatic cancer cells; test: Ihh and Shh mRNA expression in CAPAN-1 cells; assay type: cell-based; conditions: cyclopamine 4 μM, TO 2-5 μM, data not shown
Procedure: Expression of Shh and Ihh mRNA in human cultures of pancreatic cancer cells, CAPAN-1, L3.6p1, and E3LZ10.7 were analyzed by Q-RT-PCR and normalized to GAPDH expression. Cells were cultured in DMEM containing 10% FBS and RNA was extracted 3 days after seeding. Data from a representative experiment are reported as the mean of triplicate determinations±SD (p<0.001 for CAPAN-1 vs. other two cell types for Shh and 11 h mRNA expression).
Culturing CAPAN-1 cells in 1% vs. 10% FBS had no effects on their level of mRNA expression for 11th and Shh (data not shown), and treatment of CAPAN-1 cells with the Hh pathway inhibitor cyclopamine (4 μM) or the LXR agonist TO (2-5 μM) had no effect on the expression of Ihh or Shh mRNA in these cells (data not shown).

Hedgehog signaling = test: CAPAN-1 conditioned-medium-induced Hh target gene expression (Ptch1, HHIP, Gli1) in C3H10T1/2 cells; assay type: cell-based; conditions: C3H10T1/2, 48 hours; TO 2 μM, Oxy16 5 μM, Cyc 4 μM (FIG. 10)
Procedure: Next, cells were treated with DMEM containing 5% […] or CAPAN-1 CM in the presence or absence of TO, Oxy16, or Cyc. After 48 hours, RNA was extracted and analyzed by Q-RT-PCR for the expression of Hh target genes Ptch1, HHIP, and Gli1 and normalized to GAPDH expression.
As noted above, Hh signaling appears to play an important role in the initiation and progression of pancreatic cancer (26), and the inhibition of HE signaling using small molecule antagonists inhibits pancreatic cancer cells from growing in vitro and in vivo (50). […] Subsequently, Hh signaling in stromal cells provides a permissive milieu for tumor cells to grow. […] In this Example, we examine this possibility using an in vitro model system in which Hh signaling is induced in C3H10T1/2 embryonic fibroblasts by conditioned-medium (CM) from CAPAN-1 human pancreatic cancer cells.
(§1) In order to assess the functional activity of Hh proteins produced by CAPAN-1 cells, we examined the ability of CM to induce Hh target gene expression in C3H10T1/2 embryonic fibroblasts.

[3] = system: C3H10T1/2 embryonic fibroblasts; test: CAPAN-1 conditioned-medium-induced alkaline phosphatase activity in C3H10T1/2 cells; assay type: cell-based; conditions: C3H10T1/2, 3 days; TO 2 μM, Oxy16 5 μM, Cyc 4 μM (FIG. 11)
Procedure: Next, cells were treated with DMEM containing 5% FBS or CAPAN-1 CM in the presence or absence of TO, Oxy16, or Cyc. After 3 days, alkaline phosphatase activity assay using whole cell lysates was performed.
as §1

Compound: CC1=C2C[C@H]3[C@@H](CC=C4C[C@@H](O)CC[C@@]43C)[C@@H]2CC[C@]12O[C@@H]1C[C@H](C)CN[C@H]1[C@H]2C [cyclopamine]
- Ptch1 mRNA expression [1]: significant inhibition
- expression of Ihh or Shh mRNA [2]: no effect
- CAPAN-1 CM-induced expression of Hh target genes Ptch1, Gli1, HHIP (Hedgehog signaling): completely inhibited
- CAPAN-1 CM-induced ALP activity [3]: inhibited
